Assay in all cases: relative viability (nuclei count vs DMSO), 5 days (fraction); higher = more cells survive
Compound in assay [1]: C=CCNC1=C2C[C@@H](C)C[C@H](OC)[C@H](O)[C@@H](C)/C=C(\C)[C@H](OC(N)=O)[C@@H](OC)/C=C\C=C(/C)C(=O)NC(=CC1=O)C2=O [17-AAG] + CS(=O)(=O)CCNCc1ccc(-c2ccc3ncnc(Nc4ccc(OCc5cccc(F)c5)c(Cl)c4)c3c2)o1 [Lapatinib] (partner 2 µM)
The gist of the method:
(§1)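 Lung cancer cell lines, seeded in 1536-well plates, were treated the following day by pin tool with a single drug or with five library-drug doses (not always all listed) in √10 steps on top of a fixed anchor-drug dose. Cells were fixed and nuclei stained in one step after 5 days, and nuclei were counted. Relative viability is the nuclei count for treated wells divided by that for vehicle wells, reported as medians of duplicate plates.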

Compound in assay [2]: C=CCNC1=C2C[C@@H](C)C[C@H](OC)[C@H](O)[C@@H](C)/C=C(\C)[C@H](OC(N)=O)[C@@H](OC)/C=C\C=C(/C)C(=O)NC(=CC1=O)C2=O [17-AAG] + Nc1ncn([C@H]2C[C@H](O)[C@@H](CO)O2)c(=O)n1 [Decitabine] (partner 2 µM)
The gist of the method: as §1

Compound in assay [3]: C=CCNC1=C2C[C@@H](C)C[C@H](OC)[C@H](O)[C@@H](C)/C=C(\C)[C@H](OC(N)=O)[C@@H](OC)/C=C\C=C(/C)C(=O)NC(=CC1=O)C2=O [17-AAG] + CCNC(=O)c1noc(-c2cc(C(C)C)c(O)cc2O)c1-c1ccc(CN2CCOCC2)cc1 [Luminespib] (partner 0.01 µM)
The method, boiled down: as §1

Compound in assay [4]: C=CCNC1=C2C[C@@H](C)C[C@H](OC)[C@H](O)[C@@H](C)/C=C(\C)[C@H](OC(N)=O)[C@@H](OC)/C=C\C=C(/C)C(=O)NC(=CC1=O)C2=O [17-AAG] + O=C(c1cc(Cc2n[nH]c(=O)c3ccccc23)ccc1F)N1CCN(C(=O)C2CC2)CC1 [Olaparib] (partner 8 µM)
The gist of the method:
as §1

For the cell line NCI-H650, the relative viability in assay [1] (first compound 0.00128 µM) worked out at 0.982; in assay [1] (first compound 0.004048 µM), 1.05; in assay [1] (first compound 0.0128 µM), 0.62; in assay [1] (first compound 0.04048 µM), 0.333; in assay [1] (first compound 0.128 µM), 0.215; in assay [2] (first compound 0.00128 µM), 0.315. Further, the relative viability worked out at 0.339 in assay [2] (first compound 0.004048 µM); 0.384 in assay [2] (first compound 0.0128 µM); 0.302 in assay [2] (first compound 0.04048 µM); 0.196 in assay [2] (first compound 0.128 µM); 0.884 in assay [3] (first compound 0.00128 µM); 0.601 in assay [3] (first compound 0.004048 µM). Moreover, the relative viability is 0.607 in assay [3] (first compound 0.0128 µM); 0.386 in assay [3] (first compound 0.04048 µM); 0.171 in assay [3] (first compound 0.128 µM); 0.392 in assay [4] (first compound 0.00128 µM); 0.355 in assay [4] (first compound 0.004048 µM); 0.412 in assay [4] (first compound 0.0128 µM). In addition, the relative viability in assay [4] (first compound 0.04048 µM) amounted to 0.212; in assay [4] (first compound 0.128 µM) it was 0.0846.
Consider 201T, for which the relative viability was found to be 1 in assay [1] (first compound 0.00128 µM); 1.04 in assay [1] (first compound 0.004048 µM); 0.991 in assay [1] (first compound 0.0128 µM); 0.999 in assay [1] (first compound 0.04048 µM); 0.512 in assay [1] (first compound 0.128 µM); 0.842 in assay [2] (first compound 0.00128 µM). Further, the relative viability in assay [2] (first compound 0.004048 µM) turned out to be 0.838; in assay [2] (first compound 0.0128 µM), 0.811; in assay [2] (first compound 0.04048 µM), 0.804; in assay [2] (first compound 0.128 µM), 0.71; in assay [3] (first compound 0.00128 µM), 1.06; in assay [3] (first compound 0.004048 µM), 1.03. Also, the relative viability in assay [3] (first compound 0.0128 µM) stood at 0.96; in assay [3] (first compound 0.04048 µM), 0.913; in assay [3] (first compound 0.128 µM), 0.431; in assay [4] (first compound 0.00128 µM) it was 0.843; in assay [4] (first compound 0.004048 µM), 0.857; in assay [4] (first compound 0.0128 µM), 0.849. Besides, the relative viability in assay [4] (first compound 0.04048 µM) was determined as 0.802; in assay [4] (first compound 0.128 µM), 0.748.
On to HCC-78, for which the relative viability in assay [1] (first compound 0.00128 µM) stood at 1.12; in assay [1] (first compound 0.0128 µM) it was 0.994; in assay [1] (first compound 0.04048 µM), 0.603; in assay [1] (first compound 0.128 µM), 0.296; in assay [2] (first compound 0.00128 µM), 0.511; in assay [2] (first compound 0.004048 µM), 0.841. For the same cell line, the relative viability worked out at 0.695 in assay [2] (first compound 0.0128 µM); 0.465 in assay [2] (first compound 0.04048 µM); 0.369 in assay [2] (first compound 0.128 µM); 0.806 in assay [4] (first compound 0.00128 µM); 0.832 in assay [4] (first compound 0.004048 µM); 1.07 in assay [4] (first compound 0.0128 µM). Besides, the relative viability came out at 0.681 in assay [4] (first compound 0.04048 µM) and 0.308 in assay [4] (first compound 0.128 µM).
For NCI-H522, the relative viability in assay [2] (first compound 0.00128 µM) was 0.668; in assay [2] (first compound 0.004048 µM), 0.769; in assay [2] (first compound 0.0128 µM), 0.686; in assay [2] (first compound 0.04048 µM), 0.584; in assay [2] (first compound 0.128 µM), 0.431; in assay [3] (first compound 0.00128 µM), 0.902. Also, the relative viability in assay [3] (first compound 0.004048 µM) came out at 1.03; in assay [3] (first compound 0.0128 µM) it was 0.948; in assay [3] (first compound 0.04048 µM), 1.02; in assay [3] (first compound 0.128 µM), 0.451; in assay [4] (first compound 0.00128 µM), 0.517; in assay [4] (first compound 0.004048 µM), 0.878. The relative viability was found to be 0.505 in assay [4] (first compound 0.0128 µM), 0.485 in assay [4] (first compound 0.04048 µM) and 0.399 in assay [4] (first compound 0.128 µM).
Regarding NCI-H441, the relative viability in assay [2] (first compound 0.00128 µM) amounted to 0.275; in assay [2] (first compound 0.004048 µM), 0.219; in assay [2] (first compound 0.0128 µM), 0.121; in assay [2] (first compound 0.04048 µM), 0.118; in assay [2] (first compound 0.128 µM) it was 0.137; in assay [3] (first compound 0.00128 µM), 0.278. The relative viability came to 0.197 in assay [3] (first compound 0.004048 µM); 0.196 in assay [3] (first compound 0.0128 µM); 0.181 in assay [3] (first compound 0.04048 µM); 0.17 in assay [3] (first compound 0.128 µM); 0.555 in assay [4] (first compound 0.00128 µM); 0.547 in assay [4] (first compound 0.004048 µM). In addition, the relative viability in assay [4] (first compound 0.0128 µM) amounted to 0.208; in assay [4] (first compound 0.04048 µM) it was 0.135; in assay [4] (first compound 0.128 µM) it was 0.124.
HCC-366: the relative viability in assay [1] (first compound 0.00128 µM) was found to be 0.858; in assay [1] (first compound 0.004048 µM), 0.691; in assay [1] (first compound 0.0128 µM), 0.0214; in assay [1] (first compound 0.04048 µM) it was 0.0204; in assay [1] (first compound 0.128 µM), 0.0219; in assay [2] (first compound 0.00128 µM) it was 0.306. In addition, the relative viability in assay [2] (first compound 0.004048 µM) came to 0.393; in assay [2] (first compound 0.0128 µM), 0.08; in assay [2] (first compound 0.04048 µM), 0.0528; in assay [2] (first compound 0.128 µM) it was 0.0434; in assay [4] (first compound 0.00128 µM), 0.414; in assay [4] (first compound 0.004048 µM), 0.357. Also, the relative viability in assay [4] (first compound 0.0128 µM) stood at 0.0266; in assay [4] (first compound 0.04048 µM), 0.0306; in assay [4] (first compound 0.128 µM) it was 0.0265.
In the case of LCLC-103H, the relative viability stood at 0.757 in assay [2] (first compound 0.00128 µM); 0.715 in assay [2] (first compound 0.004048 µM); 0.731 in assay [2] (first compound 0.0128 µM); 0.812 in assay [2] (first compound 0.04048 µM); 0.797 in assay [2] (first compound 0.128 µM); 1.04 in assay [3] (first compound 0.00128 µM). Further, the relative viability amounted to 0.891 in assay [3] (first compound 0.004048 µM); 0.98 in assay [3] (first compound 0.0128 µM); 0.999 in assay [3] (first compound 0.04048 µM); 0.798 in assay [3] (first compound 0.128 µM); 0.841 in assay [4] (first compound 0.00128 µM); 0.745 in assay [4] (first compound 0.004048 µM). The relative viability in assay [4] (first compound 0.0128 µM) worked out at 0.755; in assay [4] (first compound 0.04048 µM), 0.823; in assay [4] (first compound 0.128 µM), 0.831.
For NCI-H1563, the relative viability stood at 0.878 in assay [1] (first compound 0.00128 µM); 0.729 in assay [1] (first compound 0.004048 µM); 0.567 in assay [1] (first compound 0.0128 µM); 0.606 in assay [1] (first compound 0.04048 µM); 0.618 in assay [1] (first compound 0.128 µM); 0.476 in assay [3] (first compound 0.00128 µM). Also, the relative viability in assay [3] (first compound 0.004048 µM) came out at 0.497; in assay [3] (first compound 0.0128 µM), 0.537; in assay [3] (first compound 0.04048 µM), 0.525; in assay [3] (first compound 0.128 µM), 0.49.
As to EBC-1, the relative viability in assay [1] (first compound 0.00128 µM) was determined as 0.217; in assay [1] (first compound 0.004048 µM), 0.234; in assay [1] (first compound 0.0128 µM) it was 0.192; in assay [1] (first compound 0.04048 µM) it was 0.2; in assay [1] (first compound 0.128 µM) it was 0.2; in assay [4] (first compound 0.00128 µM), 0.676. Besides, the relative viability in assay [4] (first compound 0.004048 µM) worked out at 0.407; in assay [4] (first compound 0.0128 µM) it was 0.13; in assay [4] (first compound 0.04048 µM), 0.142; in assay [4] (first compound 0.128 µM), 0.126.
Turning to Calu-6, the relative viability in assay [1] (first compound 0.00128 µM) is 1.03; in assay [1] (first compound 0.004048 µM), 1.01; in assay [1] (first compound 0.0128 µM) it was 0.861; in assay [1] (first compound 0.04048 µM), 0.323; in assay [1] (first compound 0.128 µM), 0.135; in assay [4] (first compound 0.00128 µM) it was 0.564. Moreover, the relative viability in assay [4] (first compound 0.004048 µM) was 0.571; in assay [4] (first compound 0.0128 µM), 0.557; in assay [4] (first compound 0.04048 µM), 0.184; in assay [4] (first compound 0.128 µM), 0.124.

The values above are taken from the supplement of paper PMC10307832.
